Assay results taken from PubChem BioAssay AID330 (DTP/NCI, 2004).
Inconclusive results and toxic doses are left out. The calls were made as follows: active = survival T/C of 150% or more; inactive = T/C below 125% in these data.

System: P388 leukemia ip, CD2F1 mice, survival T/C
Assay: NCI In Vivo Anticancer Drug Screen. Data for tumor model P388 Leukemia (intraperitoneal) in CD2F1 (CDF1) mice
Details: endpoint: median survival time, higher = longer survival
Procedure, shortened: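 Mice carrying the transplanted tumor received test compound or vehicle. Survival was recorded in each group, and the value is the treated-group measurement divided by that of the vehicle-treated control group.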

[1] = dose: 100.0 mg/kg/injection, schedule: Q04DX003 (ip), vehicle: saline with Tween-80
[2] = dose: 50.0 mg/kg/injection, schedule: Q01DX005 (ip), vehicle: Klucel (hydroxypropylcellulose) (HPC)
[3] = dose: 100.0 mg/kg/injection, schedule: Q01DX005 (ip), vehicle: Klucel (hydroxypropylcellulose) (HPC)
[4] = dose: 200.0 mg/kg/injection, schedule: Q01DX005 (ip), vehicle: Klucel (hydroxypropylcellulose) (HPC)

Measured: T/C

CCCN(CCC)CCC(=O)OCC
inactive: [1] 118 % of control | dose: 200.0 mg/kg/injection, schedule: Q04DX003 (ip), vehicle: saline with Tween-80 100 % of control | dose: 400.0 mg/kg/injection, schedule: Q04DX003 (ip), vehicle: saline with Tween-80 100 % of control

COc1ccc(C(C)c2cc3c(cc2OCC(=O)O)OCO3)cc1 (stereo unspecified)
inactive: dose: 50.0 mg/kg/injection, schedule: Q01DX005 (ip), vehicle: saline with Tween-80 105 % of control | dose: 100.0 mg/kg/injection, schedule: Q01DX005 (ip), vehicle: saline with Tween-80 88 % of control | dose: 200.0 mg/kg/injection, schedule: Q01DX005 (ip), vehicle: saline with Tween-80 90 % of control

Nc1cccc2c1C(=O)c1ccc(Cl)cc1C2=O
inactive: [2] 99 % of control | [3] 94 % of control | [4] 99 % of control

CCC1CN2CCc3cc(OC)c(OC)cc3C2CC1CC1c2cc(OC)c(OC)cc2CCN1C(=O)C(Cc1c[nH]c2ccccc12)NC(=O)OC(C)(C)C (stereo unspecified)
inactive: dose: 25.0 mg/kg/injection, schedule: Q01DX009 (ip), vehicle: saline with Tween-80 105 % of control | dose: 50.0 mg/kg/injection, schedule: Q01DX009 (ip), vehicle: saline with Tween-80 115 % of control | dose: 66.0 mg/kg/injection, schedule: Q01DX009 (ip), vehicle: saline with Tween-80 104 % of control | [1] 104 % of control

COc1ccc2c(c1)OC(C)(C)C(c1ccccc1)=C2c1ccc(OCCBr)c([N+](=O)[O-])c1
inactive: [2] 107 % of control | [3] 98 % of control | [4] 101 % of control
